# How the values were obtained:
# Assay type in all cases: in vivo
# Parameters in all cases: key: 5: completely killed; 4: seriously injured; 3: considerably injured; 2: somewhat injured; 1: slightly injured; 0: not injured (normally grown)
# paddy rice = assay: Experiment 4 flooded soil treatment: injury to paddy rice; conditions: 4 weeks after treatment
# Text: (§1) Paddy soil (clay loam) was put into a pot so as to have a surface area of 1/15500 ares. Uniformly mixed seeds of several kinds of weeds, viz., nobie (barnyardgrass, Echinochloa spp.), broad-leaved weeds, hotarui (bulrush, Scirpus juncoides) and tamagayatsuri (small-flowered umbrellaplant, Cyperus difformis), were sown in the surface layer of the soil in each pot, and then paddy rice seedlings at the two- or three-leaved stage were transplanted into each pot to a depth of 2 cm, and water was fed into each pot so as to provide a 3 cm deep water layer on the soil surface. After 3 days, in other words at the initial stage of germination of nobie (barnyardgrass, Echinochloa spp.), a predetermined amount of a selected compound obtained in a manner analogous to Example 11 in the form of diluted aqueous solution was dropped into the water layer in each pot. After that, the pots were kept in a glass chamber to allow the paddy rice and the weeds to grow, and after the lapse of 4 weeks from the treatment with the selected compounds, the herbicidal effects and the degree of injury to the paddy rice were evaluated. The evaluation of the herbicidal effects was similarly conducted as to that of Experiment 1.
# broad-leaved weeds = assay: Experiment 4 flooded soil treatment: broad-leaved weeds; conditions: 4 weeks after treatment
# Text: as §1
# [1] = test system: nobie (barnyardgrass, Echinochloa spp.); assay: Experiment 4 flooded soil treatment: nobie; conditions: 4 weeks after treatment
# Text: as §1
# [2] = test system: cockspur (Panicum crus-galli); assay: Experiment 5 foliage treatment: cockspur; conditions: foliage spray of wettable powder suspension, evaluated 4 weeks after treatment
# Description: (§2) Upon seedling stage (two- or three-leaved stage) of rice, cockspur (Panicum crus-galli), garden radish, aobiyu (slender amaranth, Amaranthus viridis) and mehishiba (henry crabgrass, Digitaria cliaris) which were grown on a cultivated soil put in pots of 1/15500 ares, a selected compound obtained in a manner analogous to Example 11, in suspended wettable powder, was sprayed to each plant. After that, the pots were kept in a glass chamber to allow each plant to grow, and after the lapse of 4 weeks from the treatment with the selected compounds the herbicidal effects were evaluated. The evaluation of the herbicidal effects was similarly conducted as that of Experiment 1.
# [3] = test system: tamagayatsuri (small-flowered umbrellaplant, Cyperus difformis); assay: Experiment 4 flooded soil treatment: tamagayatsuri; conditions: 4 weeks after treatment
# Text: as §1
# [4] = test system: aobiyu (slender amaranth, Amaranthus viridis); assay: Experiment 5 foliage treatment: aobiyu; conditions: foliage spray of wettable powder suspension, evaluated 4 weeks after treatment
# Description: as §2
# garden radish = assay: Experiment 5 foliage treatment: garden radish; conditions: foliage spray of wettable powder suspension, evaluated 4 weeks after treatment
# Description: as §2
# rice = assay: Experiment 5 foliage treatment: rice; conditions: foliage spray of wettable powder suspension, evaluated 4 weeks after treatment
# Description: as §2
# [5] = test system: mehishiba (henry crabgrass, Digitaria cliaris); assay: Experiment 5 foliage treatment: mehishiba; conditions: foliage spray of wettable powder suspension, evaluated 4 weeks after treatment
# Description: as §2
# [6] = test system: hotarui (bulrush, Scirpus juncoides); assay: Experiment 4 flooded soil treatment: hotarui; conditions: 4 weeks after treatment
# Text: as §1
SMILES,Injury of Paddy (paddy rice; 3.13 g/10a),Injury of Paddy (paddy rice; 6.25 g/10a),Herbicidal Effect broad-leaved weed (broad-leaved weeds; 3.13 g/10a),Herbicidal Effect broad-leaved weed (broad-leaved weeds; 6.25 g/10a),Herbicidal Effect nobie ([1]; 3.13 g/10a),Herbicidal Effect nobie ([1]; 6.25 g/10a),Herbicidal Effect cockspur ([2]; 40 g/10a),Herbicidal Effect cockspur ([2]; 80 g/10a),Herbicidal Effect tamagayatsuri ([3]; 3.13 g/10a),Herbicidal Effect tamagayatsuri ([3]; 6.25 g/10a),Herbicidal Effect aobiyu ([4]; 40 g/10a),Herbicidal Effect aobiyu ([4]; 80 g/10a),Herbicidal Effect garden radish (garden radish; 40 g/10a),Herbicidal Effect garden radish (garden radish; 80 g/10a),Herbicidal Effect rice (rice; 40 g/10a),Herbicidal Effect rice (rice; 80 g/10a),Herbicidal Effect mehishiba ([5]; 40 g/10a),Herbicidal Effect mehishiba ([5]; 80 g/10a),Herbicidal Effect hotarui ([6]; 3.13 g/10a),Herbicidal Effect hotarui ([6]; 6.25 g/10a)
C#CC(C)Oc1cc(N(C(=O)C2=C(C(=O)OCCC)CCCC2)C(=O)c2cccnc2)c(F)cc1Cl (stereo not drawn) [Compound No. 58],0,0.5,5,5,5,5,1,1,5,5,5,5,5,5,1,1,1,3,4,4.5
COC(=O)C1=C(C(=O)N(C(=O)c2cccnc2)c2cc(OC(C)C)c(Cl)cc2F)CCCC1 [compound 56],0.5,0.5,4.5,5,5,5,1,1,5,5,5,5,5,5,1,1,1,1,5,5
C#CC(C)Oc1cc(N(C(=O)C2=C(C(=O)OCCCC)CCCC2)C(=O)c2cccnc2)c(F)cc1Cl (stereo not drawn) [compound 59],0.5,0.5,5,5,5,5,0,1,5,5,5,5,5,5,1,1,1,1,4,4
C#CCOC(=O)C1=C(C(=O)N(C(=O)c2cccnc2)c2cc(OC(C)C#C)c(Cl)cc2F)CCCC1 (stereo not drawn) [compound 61],0,0.5,5,5,5,5,2,2,5,5,5,5,5,5,3,4,4.5,5,4,4
C#CC(C)Oc1cc(N(C(=O)C2=C(C(=O)OC3CCCC3)CCCC2)C(=O)c2cccnc2)c(F)cc1Cl (stereo not drawn) [compound 62],0,0.5,5,5,5,5,1,1,5,5,5,5,4.5,5,1,1,1,1,4,4
COC(=O)CSc1cc(N(C(=O)C2=C(C(=O)OC)CCCC2)C(=O)c2cccnc2)c(F)cc1Cl [compound 63],0,0,5,5,5,5,1,1,4,5,5,5,4.5,4.5,1,1,1,1,4,4
COCCOC(=O)C1=C(C(=O)N(C(=O)c2cccnc2)c2cc(C(=O)OC)c(Cl)cc2F)CCCC1 [compound 65],0,0,5,5,5,5,1,1,4,4,5,5,5,5,1,1,1,1,4,4
CCCCOC(=O)c1cc(N(C(=O)C2=C(C(=O)OC)CCCC2)C(=O)c2cccnc2)c(F)cc1Cl [compound 66],0,0,5,5,5,5,1,1,4,4,5,5,4.5,5,1,1,1,2,4,4
C#CC(C)Oc1cc(N(C(=O)C2=C(C(=O)OC(C)C)CCCC2)C(=O)c2ccc(Cl)nc2)c(F)cc1Cl (stereo not drawn) [compound 68],0,0.5,5,5,5,5,1,1,5,5,5,5,5,5,1,1,1,1,4,4.5

# — patent publication US6337417B1, “N-phenyltetrahydrophthalamic acid derivatives, methods of producing same, and herbicides containing same as effective components” (Central Glass Co., Ltd., priority 1994, dated 2002)
